Reference: US11267800B2, “Cyclohexyl acid triazole azines as LPA antagonists” (BRISTOL-MYERS SQUIBB COMPANY, priority 2017, dated 2022)

target: T1, human LPA1 (Homo sapiens, UniProt Q92633); test: LPA1 functional antagonist assay (calcium flux); format: cell-based; conditions: CHO cells overexpressing human LPA1; inhibition of calcium flux induced by 10 nM LPA; read-out: hLPA1 IC50
T1 construct: expressed in transfected cells; host or cells: Chinese hamster ovary (CHO) cells
Protocol: The effectiveness of compounds of the present invention as LPA1 inhibitors can be determined in an LPA1 functional antagonist assay as follows:
Chinese hamster ovary cells overexpressing human LPA1 were plated overnight (15,000 cells/well) in poly-D-lysine coated 384-well microplates (Greiner bio-one, Cat #781946) in DMEM/F12 medium (Gibco, Cat #11039). Following overnight culture, cells were loaded with calcium indicator dye (AAT Bioquest Inc, Cat #34601) for 30 minutes at 37° C. The cells were then equilibrated to room temperature for 30 minutes before the assay. Test compounds solubilized in DMSO were transferred to 384 well non-binding surface plates (Corning, Cat #3575) using the Labcyte Echo acoustic dispense and diluted with assay buffer [1×HBSS with calcium/magnesium (Gibco Cat #14025-092), 20 mM HEPES (Gibco Cat #15630-080) and 0.1% fatty acid free BSA (Sigma Cat #A9205)] to a final concentration of 0.5% DMSO. Diluted compounds were added to the cells by FDSS6000 (Hamamatsu) at final concentrations ranging from 0.08 nM to 5 μM. and were then incubated for 20 min at room temperature at which time LPA (Avanti Polar Lipids Cat #857130C) was added at final concentrations of 10 nM to stimulate the cells. The compound IC50 value was defined as the concentration of test compound which inhibited 50% of the calcium flux induced by LPA alone. IC50 values were determined by fitting data to a 4-parameter logistic equation (GraphPad Prism, San Diego Calif.).

T1 sequence (Q92633 whole entry): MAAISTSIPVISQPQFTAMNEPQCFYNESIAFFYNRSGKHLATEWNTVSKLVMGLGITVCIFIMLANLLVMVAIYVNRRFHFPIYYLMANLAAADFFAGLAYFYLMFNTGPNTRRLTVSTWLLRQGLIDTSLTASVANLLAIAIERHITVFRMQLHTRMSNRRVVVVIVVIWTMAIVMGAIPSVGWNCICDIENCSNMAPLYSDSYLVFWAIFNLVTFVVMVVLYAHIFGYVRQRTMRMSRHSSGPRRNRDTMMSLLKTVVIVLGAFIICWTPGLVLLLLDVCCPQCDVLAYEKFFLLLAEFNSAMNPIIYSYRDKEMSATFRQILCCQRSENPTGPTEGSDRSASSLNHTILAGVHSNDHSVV

IC50 [µM] | Compound
0.187 | CSc1ccnc(NCc2c(-c3ccc(O[C@H]4CCC[C@H](C(=O)O)C4)c(C)n3)nnn2C)n1 [Example 97]
0.099 | Cc1nc(-c2nnn(C)c2CNc2ccnc(OC(C)C(F)(F)F)n2)ccc1O[C@H]1CCC[C@H](C(=O)O)C1 (stereo partly shown) [Example 98]
0.244 | Cc1nc(-c2nnn(C)c2CNc2nccc(OC(C)C(F)(F)F)n2)ccc1O[C@H]1CCC[C@H](C(=O)O)C1 (stereo partly shown) [Example 99]
0.085 | Cc1nc(-c2nnn(C)c2CNc2nccc(Oc3c(F)cc(F)cc3F)n2)ccc1O[C@H]1CCC[C@H](C(=O)O)C1 [Example 100]
0.028 | Cc1nc(-c2nnn(C)c2CNc2nccc(Oc3ccc(F)c(F)c3)n2)ccc1O[C@H]1CCC[C@H](C(=O)O)C1 [Example 101]
0.025 | Cc1nc(-c2nnn(C)c2CNc2nccc(OCCCF)n2)ccc1O[C@H]1CCC[C@H](C(=O)O)C1 [Example 102]
0.033 | Cc1nc(-c2nnn(C)c2CNc2nccc(Oc3cc(F)ccc3F)n2)ccc1O[C@H]1CCC[C@H](C(=O)O)C1 [Example 103]
0.027 | CCCOc1ccnc(NCc2c(-c3ccc(O[C@H]4CCC[C@H](C(=O)O)C4)c(C)n3)nnn2C)n1 [Example 104]
0.022 | COc1cccc(Oc2ccnc(NCc3c(-c4ccc(O[C@H]5CCC[C@H](C(=O)O)C5)c(C)n4)nnn3C)n2)c1 [Example 105]
0.226 | Cc1ccc(Oc2ccnc(NCc3c(-c4ccc(O[C@H]5CCC[C@H](C(=O)O)C5)c(C)n4)nnn3C)n2)cc1 [Example 106]
0.054 | COc1ccc(Oc2ccnc(NCc3c(-c4ccc(O[C@H]5CCC[C@H](C(=O)O)C5)c(C)n4)nnn3C)n2)cc1 [Example 107]
0.152 | Cc1cccc(Oc2ccnc(NCc3c(-c4ccc(O[C@H]5CCC[C@H](C(=O)O)C5)c(C)n4)nnn3C)n2)c1 [Example 108]
0.017 | Cc1nc(-c2nnn(C)c2CNc2nccc(Oc3cccc(F)c3)n2)ccc1O[C@H]1CCC[C@H](C(=O)O)C1 [Example 109]
0.022 | Cc1nc(-c2nnn(C)c2CNc2nccc(Oc3ccc(F)cc3)n2)ccc1O[C@H]1CCC[C@H](C(=O)O)C1 [Example 110]
0.763 | Cc1nc(-c2nnn(C)c2CNc2nccc(-n3ccccc3=O)n2)ccc1O[C@H]1CCC[C@H](C(=O)O)C1 [Example 111]
0.045 | Cc1nc(-c2nnn(C)c2CNc2nccc(Oc3ccc(Cl)cc3)n2)ccc1O[C@H]1CCC[C@H](C(=O)O)C1 [Example 112]
0.191 | Cc1nc(-c2nnn(C)c2CNc2nccc(Oc3ccccn3)n2)ccc1O[C@H]1CCC[C@H](C(=O)O)C1 [Example 113]
0.017 | Cc1nc(-c2nnn(C)c2CNc2nccc(Oc3cc(F)cc(F)c3)n2)ccc1O[C@H]1CCC[C@H](C(=O)O)C1 [Example 114]
0.025 | Cc1nc(-c2nnn(C)c2CNc2nccc(Oc3ccccc3F)n2)ccc1O[C@H]1CCC[C@H](C(=O)O)C1 [Example 115]
0.014 | Cc1nc(-c2nnn(C)c2CNc2nccc(Oc3ccc(F)cc3F)n2)ccc1O[C@H]1CCC[C@H](C(=O)O)C1 [Example 116]
0.032 | Cc1nc(-c2nnn(C)c2CNc2nccc(OC3CC3)n2)ccc1O[C@H]1CCC[C@H](C(=O)O)C1 [Example 117]

IC50 [µM] | Compound
0.448 | Cc1nc(-c2nnn(C)c2CNc2ncccc2OC(C)C)ccc1O[C@H]1CCC[C@H](C(=O)O)C1 [Example 118]
0.793 | Cc1nc(-c2nnn(C)c2CNc2ncccc2OC(F)(F)F)ccc1O[C@H]1CCC[C@H](C(=O)O)C1 [Example 119]
0.344 | COc1cnc(NCc2c(-c3ccc(O[C@H]4CCC[C@H](C(=O)O)C4)c(C)n3)nnn2C)nc1C(C)(C)C [Example 120]
0.106 | COc1cnc(NCc2c(-c3ccc(O[C@H]4CCC[C@H](C(=O)O)C4)c(C)n3)nnn2C)nc1C1CCC1 [Example 121]
1.13 | COC(C)(C)c1ccnc(NCc2c(-c3ccc(O[C@H]4CCC[C@H](C(=O)O)C4)c(C)n3)nnn2C)n1 [Example 122]
0.079 | Cc1nc(-c2nnn(C)c2CNc2ncc(F)c(-c3ccccc3F)n2)ccc1O[C@H]1CCC[C@H](C(=O)O)C1 [Example 123]
0.385 | COCC(C)(C)c1ccnc(NCc2c(-c3ccc(O[C@H]4CCC[C@H](C(=O)O)C4)c(C)n3)nnn2C)n1 [Example 124]
0.167 | Cc1nc(-c2nnn(C)c2CNc2cc(C(F)(F)F)nc(Cl)n2)ccc1O[C@H]1CCC[C@H](C(=O)O)C1 [Example 125]
0.022 | Cc1nc(-c2nnn(C)c2CNc2nccc(CC(C)C)n2)ccc1O[C@H]1CCC[C@H](C(=O)O)C1 [Example 126]
0.022 | Cc1nc(-c2nnn(C)c2CNc2nccc(C(C)(C)CF)n2)ccc1O[C@H]1CCC[C@H](C(=O)O)C1 [Example 127]
0.855 | Cc1nc(-c2nnn(C)c2CNc2nccc(C(C)(C)CO)n2)ccc1O[C@H]1CCC[C@H](C(=O)O)C1 [Example 128]
0.102 | CCc1cc(CC)nc(NCc2c(-c3ccc(O[C@H]4CCC[C@H](C(=O)O)C4)c(C)n3)nnn2C)n1 [Example 129]
0.105 | Cc1nc(-c2nnn(C)c2CNc2nccc(Oc3ccccc3)n2)cnc1O[C@H]1CCC[C@H](C(=O)O)C1 [Example 130]
0.053 | Cc1nc(-c2nnn(C)c2CNc2nccc(C(C)(C)F)n2)ccc1O[C@H]1CCC[C@H](C(=O)O)C1 [Example 132]
0.116 | Cc1nc(-c2nnn(C)c2CNc2nccc(C(C)(F)F)n2)ccc1O[C@H]1CCC[C@H](C(=O)O)C1 [Example 133]
0.028 | CCC(F)(F)c1ccnc(NCc2c(-c3ccc(O[C@H]4CCC[C@H](C(=O)O)C4)c(C)n3)nnn2C)n1 [Example 134]
0.296 | Cc1nc(-c2nnn(C)c2CNc2nccc(C(C)C)n2)cnc1O[C@H]1CCC[C@H](C(=O)O)C1 [Example 135]
0.086 | Cc1nc(-c2nnn(C)c2CNc2nccc(C(C)(C)C)n2)cnc1O[C@H]1CCC[C@H](C(=O)O)C1 [Example 136]
0.056 | Cc1nc(-c2nnn(C)c2CNc2nccc(-c3ccccc3)n2)cnc1O[C@H]1CCC[C@H](C(=O)O)C1 [Example 137]
0.033 | Cc1nc(-c2nnn(C)c2CNc2nccc(-c3ccccc3F)n2)cnc1O[C@H]1CCC[C@H](C(=O)O)C1 [Example 138]
0.042 | Cn1nnc(-c2ccc(O[C@H]3CCC[C@H](C(=O)O)C3)cn2)c1CNc1nccc(OC2CC2)n1 [Example 139]

IC50 [µM] | Compound
1.37 | Cn1nnc(-c2ccc(O[C@H]3CCC[C@H](C(=O)O)C3)cn2)c1CNc1ccnc(OC2CC2)n1 [Example 140]
0.022 | CCOc1ccnc(NCc2c(-c3ccc(O[C@H]4CCC[C@H](C(=O)O)C4)cn3)nnn2C)n1 [Example 141]
0.159 | COc1nc(NCc2c(-c3ccc(O[C@H]4CCC[C@H](C(=O)O)C4)c(C)n3)nnn2C)ncc1F [Example 142]
0.026 | Cc1nc(-c2nnn(C)c2CNc2ncc(F)c(-c3ccccc3)n2)ccc1O[C@H]1CCC[C@H](C(=O)O)C1 [Example 143]
0.04 | Cc1nc(-c2nnn(C)c2CNc2ncc(F)c(C(C)(C)C)n2)ccc1O[C@H]1CCC[C@H](C(=O)O)C1 [Example 144]
0.058 | Cc1cc(-c2ccccc2C#N)nc(NCc2c(-c3ccc(O[C@H]4CCC[C@H](C(=O)O)C4)c(C)n3)nnn2C)n1 [Example 145]
0.278 | Cc1nc(-c2nnn(C)c2CNc2ncc3c(n2)-c2ccccc2OC3)ccc1O[C@H]1CCC[C@H](C(=O)O)C1 [Example 147]
0.07 | CCC1(c2ccnc(NCc3c(-c4ccc(O[C@H]5CCC[C@H](C(=O)O)C5)c(C)n4)nnn3C)n2)CC1 [Example 148]
0.034 | CCC(C)(C)c1ccnc(NCc2c(-c3ccc(O[C@H]4CCC[C@H](C(=O)O)C4)c(C)n3)nnn2C)n1 [Example 149]
0.084 | Cc1nc(-c2nnn(C)c2CNc2cc(C(C)(C)C)ccn2)ccc1O[C@H]1CCC[C@H](C(=O)O)C1 [Example 150]
0.04 | Cc1nc(-c2nnn(C)c2CNc2nccc(C3(C)CC3)n2)ccc1O[C@H]1CCC[C@H](C(=O)O)C1 [Example 151]
0.067 | Cc1nc(-c2nnn(C)c2CNc2cc(Oc3ccccc3)ccn2)ccc1O[C@H]1CCC[C@H](C(=O)O)C1 [Example 152]
0.704 | Cc1nc(-c2nnn(C)c2CNc2nccc(C(C)(C)O)n2)ccc1O[C@H]1CCC[C@H](C(=O)O)C1 [Example 153]
0.043 | Cc1nc(-c2nnn(C)c2CNc2nccc(C3CC3C)n2)ccc1O[C@H]1CCC[C@H](C(=O)O)C1 (stereo partly shown) [Example 154]
0.096 | Cc1nc(-c2nnn(C)c2CNc2nccc(C34CC(C3)C4)n2)ccc1O[C@H]1CCC[C@H](C(=O)O)C1 [Example 155]
0.032 | Cc1nc(-c2nnn(C)c2CNc2nccc(C3CC(F)C3)n2)ccc1O[C@H]1CCC[C@H](C(=O)O)C1 (stereo partly shown) [Example 156]
0.04 | Cc1nc(-c2nnn(C)c2CNc2ncc(F)c(C(C)C)n2)ccc1O[C@H]1CCC[C@H](C(=O)O)C1 [Example 157]
0.027 | Cc1nc(-c2nnn(C)c2CNc2ncc(Cl)c(C(C)C)n2)ccc1O[C@H]1CCC[C@H](C(=O)O)C1 [Example 158]
0.021 | CCC(C)c1ccnc(NCc2c(-c3ccc(O[C@H]4CCC[C@H](C(=O)O)C4)c(C)n3)nnn2C)n1 (stereo partly shown) [Example 159]
